# Assays:
# Assay in all cases: relative viability (nuclei count vs DMSO), 5 days (fraction); higher = more cells survive
# [1] = tested on: NCI-H1563
# Procedure, shortened: (§1)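 A single step with final 0.05% Triton X-100, 1% formaldehyde and 1 ug/ml Hoechst fixed the cells and stained nuclei 5 days after treatment. Lung cancer cell lines in 1536-well plates had been treated by pin tool the day after seeding with one drug alone or a fixed anchor-drug dose plus five library-drug doses (not always all listed) in √10 steps, and nuclei were counted on 4× images. Relative viability is the ratio of nuclei in treated wells to nuclei in vehicle wells, taken as the median of duplicate plates.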
# [2] = tested on: NCI-H1755
# Procedure, shortened: as §1
# [3] = tested on: NCI-H1792
# Procedure, shortened: as §1
# [4] = tested on: NCI-H727
# Procedure, shortened: as §1
# [5] = tested on: LCLC-103H
# Procedure, shortened: as §1
# [6] = tested on: NCI-H460
# Procedure, shortened: as §1
# [7] = tested on: NCI-H2347
# Procedure, shortened: as §1
# [8] = tested on: LXF-289
# Procedure, shortened: as §1
# [9] = tested on: NCI-H1355
# Procedure, shortened: as §1
# [10] = tested on: NCI-H3122
# Procedure, shortened: as §1
# [11] = tested on: NCI-H1915
# Procedure, shortened: as §1
# [12] = tested on: NCI-H522
# Procedure, shortened: as §1
# [13] = tested on: NCI-H1651
# Procedure, shortened: as §1
# [14] = tested on: NCI-H520
# Procedure, shortened: as §1
# [15] = tested on: NCI-H661
# Procedure, shortened: as §1
# [16] = tested on: NCI-H322M
# Procedure, shortened: as §1
# [17] = tested on: RERF-LC-KJ
# Procedure, shortened: as §1
# [18] = tested on: SW 900
# Procedure, shortened: as §1
# [19] = tested on: PC-14
# Procedure, shortened: as §1
# [20] = tested on: SK-MES-1
# Procedure, shortened: as §1
# [21] = tested on: NCI-H441
# Procedure, shortened: as §1
# [22] = tested on: NCI-H596
# Procedure, shortened: as §1
compound,measurement,setting,value
O=c1cc(N2CCOCC2)oc2c(-c3cccc4c3sc3ccccc34)cccc12 + COc1cccc2cc(-c3nc([C@H]4CC[C@H](C(=O)O)CC4)n4ncnc(N)c34)[nH]c12 [OSI-027] (partner 0.5 µM),relative viability,[1]; first compound 0.01 µM,0.695
same,relative viability,[1]; first compound 0.03162 µM,0.741
same,relative viability,[1]; first compound 0.1 µM,0.773
same,relative viability,[1]; first compound 0.3162 µM,0.794
same,relative viability,[1]; first compound 1 µM,0.697
same,relative viability,[2]; first compound 0.01 µM,0.785
same,relative viability,[2]; first compound 0.03162 µM,0.691
same,relative viability,[2]; first compound 0.1 µM,0.783
same,relative viability,[2]; first compound 0.3162 µM,0.673
same,relative viability,[2]; first compound 1 µM,0.685
same,relative viability,[3]; first compound 0.01 µM,0.717
same,relative viability,[3]; first compound 0.03162 µM,0.716
same,relative viability,[3]; first compound 0.1 µM,0.653
same,relative viability,[3]; first compound 0.3162 µM,0.752
same,relative viability,[3]; first compound 1 µM,0.779
same,relative viability,[4]; first compound 0.01 µM,0.498
same,relative viability,[4]; first compound 0.03162 µM,0.567
same,relative viability,[4]; first compound 0.1 µM,0.473
same,relative viability,[4]; first compound 0.3162 µM,0.592
same,relative viability,[4]; first compound 1 µM,0.659
same,relative viability,[5]; first compound 0.01 µM,0.446
same,relative viability,[5]; first compound 0.03162 µM,0.462
same,relative viability,[5]; first compound 0.1 µM,0.513
same,relative viability,[5]; first compound 0.3162 µM,0.474
same,relative viability,[5]; first compound 1 µM,0.419
same,relative viability,[6]; first compound 0.01 µM,0.659
same,relative viability,[6]; first compound 0.03162 µM,0.717
same,relative viability,[6]; first compound 0.1 µM,0.683
same,relative viability,[6]; first compound 0.3162 µM,0.68
same,relative viability,[6]; first compound 1 µM,0.653
same,relative viability,[7]; first compound 0.01 µM,0.503
same,relative viability,[7]; first compound 0.03162 µM,0.392
same,relative viability,[7]; first compound 0.1 µM,0.522
same,relative viability,[7]; first compound 0.3162 µM,0.42
same,relative viability,[7]; first compound 1 µM,0.461
same,relative viability,[8]; first compound 0.01 µM,0.807
same,relative viability,[8]; first compound 0.03162 µM,0.778
same,relative viability,[8]; first compound 0.1 µM,0.755
same,relative viability,[8]; first compound 0.3162 µM,0.825
same,relative viability,[8]; first compound 1 µM,0.81
same,relative viability,[9]; first compound 0.01 µM,0.474
same,relative viability,[9]; first compound 0.03162 µM,0.469
same,relative viability,[9]; first compound 0.1 µM,0.265
same,relative viability,[9]; first compound 0.3162 µM,0.452
same,relative viability,[9]; first compound 1 µM,0.394
same,relative viability,[10]; first compound 0.01 µM,1.02
same,relative viability,[10]; first compound 0.03162 µM,0.911
same,relative viability,[10]; first compound 0.1 µM,0.907
same,relative viability,[10]; first compound 0.3162 µM,0.987
same,relative viability,[10]; first compound 1 µM,0.934
same,relative viability,[11]; first compound 0.01 µM,0.672
same,relative viability,[11]; first compound 0.03162 µM,0.796
same,relative viability,[11]; first compound 0.1 µM,0.663
same,relative viability,[11]; first compound 0.3162 µM,0.647
same,relative viability,[11]; first compound 1 µM,0.65
same,relative viability,[12]; first compound 0.01 µM,0.83
same,relative viability,[12]; first compound 0.03162 µM,0.708
same,relative viability,[12]; first compound 0.1 µM,0.496
same,relative viability,[12]; first compound 0.3162 µM,0.737
same,relative viability,[12]; first compound 1 µM,0.737
same,relative viability,[13]; first compound 0.01 µM,0.593
same,relative viability,[13]; first compound 0.03162 µM,0.704
same,relative viability,[13]; first compound 0.1 µM,0.668
same,relative viability,[13]; first compound 0.3162 µM,0.654
same,relative viability,[13]; first compound 1 µM,0.636
same,relative viability,[14]; first compound 0.01 µM,0.284
same,relative viability,[14]; first compound 0.03162 µM,0.299
same,relative viability,[14]; first compound 0.1 µM,0.235
same,relative viability,[14]; first compound 0.3162 µM,0.229
same,relative viability,[14]; first compound 1 µM,0.323
same,relative viability,[15]; first compound 0.01 µM,0.692
same,relative viability,[15]; first compound 0.03162 µM,0.738
same,relative viability,[15]; first compound 0.1 µM,0.772
same,relative viability,[15]; first compound 0.3162 µM,0.756
same,relative viability,[15]; first compound 1 µM,0.708
same,relative viability,[16]; first compound 0.01 µM,0.599
same,relative viability,[16]; first compound 0.03162 µM,0.646
same,relative viability,[16]; first compound 0.1 µM,0.282
same,relative viability,[16]; first compound 0.3162 µM,0.579
same,relative viability,[16]; first compound 1 µM,0.43
same,relative viability,[17]; first compound 0.01 µM,0.617
same,relative viability,[17]; first compound 0.03162 µM,0.635
same,relative viability,[17]; first compound 0.1 µM,0.6
same,relative viability,[17]; first compound 0.3162 µM,0.615
same,relative viability,[17]; first compound 1 µM,0.555
same,relative viability,[18]; first compound 0.01 µM,0.565
same,relative viability,[18]; first compound 0.03162 µM,0.572
same,relative viability,[18]; first compound 0.1 µM,0.311
same,relative viability,[18]; first compound 0.3162 µM,0.69
same,relative viability,[18]; first compound 1 µM,0.545
same,relative viability,[19]; first compound 0.01 µM,0.954
same,relative viability,[19]; first compound 0.03162 µM,0.858
same,relative viability,[19]; first compound 0.1 µM,0.74
same,relative viability,[19]; first compound 0.3162 µM,1.04
same,relative viability,[19]; first compound 1 µM,0.795
same,relative viability,[20]; first compound 0.01 µM,0.613
same,relative viability,[20]; first compound 0.03162 µM,0.685
same,relative viability,[20]; first compound 0.1 µM,0.531
same,relative viability,[20]; first compound 0.3162 µM,0.633
same,relative viability,[20]; first compound 1 µM,0.579
same,relative viability,[21]; first compound 0.01 µM,0.679
same,relative viability,[21]; first compound 0.03162 µM,0.617
same,relative viability,[21]; first compound 0.1 µM,0.537
same,relative viability,[21]; first compound 0.3162 µM,0.614
same,relative viability,[21]; first compound 1 µM,0.648
same,relative viability,[22]; first compound 0.01 µM,0.738
same,relative viability,[22]; first compound 0.03162 µM,0.747
same,relative viability,[22]; first compound 0.1 µM,0.493
same,relative viability,[22]; first compound 0.3162 µM,0.828
same,relative viability,[22]; first compound 1 µM,0.722

# — the supplement of paper PMC10307832
